In patent US20220136016A1, “MODIFIED CHLORAMPHENICOL […] AND BIOSYNTHESIS METHOD OF MAKING ESTERS USING SAME” (UNIVERSITY OF TENNESSEE RESEARCH FOUNDATION, priority 2020, published 2022):

B1: CATec3 F97W Y20F: CATec3 with Y20F mutation in combination with F97W (protein, UniProt P00484 1-213, looked up, variant Y20F F97W)
Chloramphenicol …: MNYTKFDVKNWVRREHFEFFRHRLPCGFSLTSKIDITTLKKSLDDSAYKFYPVMIYLIAQAVNQFDELRMAIKDDELIVWDSVDPQFTVFHQETETWSALSCPYSSDIDQFMVNYLSVMERYKSDTKLFPQGVTPENHLNISALPWVNFDSFNLNVANFTDYFAPIITMAKYQQEGDRLLLPLSVQVHHAVCDGFHVARFINRLQELCNSKLK
B2: CATec3 F97W: comparative CATec3 with F97W mutation (protein, UniProt P00484 1-213, looked up, variant F97W)
Chloramphenicol …: MNYTKFDVKNWVRREHFEFYRHRLPCGFSLTSKIDITTLKKSLDDSAYKFYPVMIYLIAQAVNQFDELRMAIKDDELIVWDSVDPQFTVFHQETETWSALSCPYSSDIDQFMVNYLSVMERYKSDTKLFPQGVTPENHLNISALPWVNFDSFNLNVANFTDYFAPIITMAKYQQEGDRLLLPLSVQVHHAVCDGFHVARFINRLQELCNSKLK
B3: CATec3: wild type CAT, type A, Escherichia coli; expressed in strain HSCT2107 (protein, listed as Escherichia coli)
chain: MNYTKFDVKNWVRREHFEFYRHRLPCGFSLTSKIDITTLKKSLDDSAYKFYPVMIYLIAQAVNQFDELRMAIKDDELIVWDSVDPQFTVFHQETETFSALSCPYSSDIDQFMVNYLSVMERYKSDTKLFPQGVTPENHLNISALPWVNFDSFNLNVANFTDYFAPIITMAKYQQEGDRLLLPLSVQVHHAVCDGFHVARFINRLQELCNSKLK
modifications: SITE (1)..(213) CAT3_ECOLX, Type A
notes: wild type CAT, type A, Escherichia coli; expressed in strain HSCT2107
B4: CAT_GEO: wild type CAT, type A, Geomicrobium sp. (protein, listed as Geomicrobium sp.)
chain: MTFNPITLENWERKEYFNHYLNQQTTFSMTTDIEISSFKAAIKRKGYKFYPTFIYMVTEVINANESFRISFNEEGKLGYWEKLIPLYTVFDDQKQSFSNLWTDSTGNVLTFQEDYDRDVAEYNHIGGLFPKTPIPANTFPISMIPWNSFSGFNLNVGNGGNFLLPIITAGKYYSKGTATYLPVSLQVHHAVCDGYHAASFMNQLQELANTTNEWL
modifications: SITE (1)..(215) CAT_GEO, Type A

System: not listed separately
Assay: Melting temperature (Tm) of purified His-tagged CATs
Type: physicochemical
Settings: purified CAT
Experimental: To determine in vitro melting temperatures and catalytic efficiencies, His-tagged CATs were purified and characterized using know methods. In the 5,5′-dithiobis-2-nitrobenzoic acid (DTNB) assay, final enzyme concentrations of 0.05-0.1 μg/mL and 5-10 μg/mL were used for the reactions with chloramphenicol and alcohols, respectively. […] The enzyme reactions were held at 50° C. in a BioTek microplate reader for at least 30 minutes with measurements every one minute. The kinetic parameters were calculated using a non-linear regression method known to one of skill in the art.
In the case of B1, the “melting temperature (Tm)” value is reported as 85.5 °C.
In the case of B2, the “melting temperature (Tm)” value is reported as 81.2 °C.
For B3, the “melting temperature (Tm)” value was 80.2 °C.
For B4, the “melting temperature (Tm)” value was 43.5 °C.

Target: CATec3 Y20F (Escherichia coli, UniProt P00484, Y20F)
Assay: not given
Type: biochemical
Settings: not given
In the case of Butanol, the kcat is reported as 1.9 ± 0.4 s⁻¹.

Same assay, conditions: CATec3 Y20F, 50° C., 2 mM acetyl-CoA; average±standard deviation
`CC/C=C\CCO` [3-cis-Hexen-1-ol] showed a kcat of 2.3 ± 0.2 s⁻¹.
Work on `CC(C)CCO` [Isoamyl alcohol] yielded a Km of 59.9 ± 26.6 mM and a kcat of 2.8 ± 0.3 s⁻¹.
For `CCCCCO` [Pentanol], the Km was 64.7 ± 33.6 mM and the kcat was 3.9 ± 1.0 s⁻¹.
In the case of `OCc1ccccc1` [Benzyl alcohol], the Km is reported as 12.2 ± 1.6 mM and the kcat is reported as 1.6 ± 0.1 s⁻¹.
With `CC(C)=CCCC(C)CCO` (centres unmarked) [Citronellol] the Km was 3.2 ± 0.3 mM and the kcat was 7.7 ± 0.2 s⁻¹.
`CC(C)=CCC/C(C)=C\CO` [Nerol] gave a Km of 4.1 ± 0.8 mM and a kcat of 2.2 ± 0.04 s⁻¹.
Work on `OCc1ccco1` [Furfuryl alcohol] yielded a Km of 37.1 ± 9.8 mM and a kcat of 1.1 ± 0.1 s⁻¹.
`CCO` [Ethanol] showed a kcat of 0.8 ± 1.0 s⁻¹.
Work on `OCCc1ccccc1` [Phenylethyl alcohol] yielded a Km of 10.6 ± 0.4 mM and a kcat of 6.1 ± 0.1 s⁻¹.
With `CCCCCCO` [Hexanol] the Km was 29.2 ± 4 mM and the kcat was 6.4 ± 0.4 s⁻¹.
For `COc1cccc(CO)c1` [3-Methoxybenzyl alcohol], the Km was 10 ± 1.2 mM and the kcat was 18.8 ± 0.9 s⁻¹.
`O=C(N[C@H](CO)[C@H](O)c1ccc([N+](=O)[O-])cc1)C(Cl)Cl` [Chloramphenicol] gave a Km of 0.2 ± 0.05 mM and a kcat of 105.5 ± 6.9 s⁻¹.
With `CC(C)=CCO` [Prenol] the kcat was 2.7 ± 0.3 s⁻¹.
`CC(C)=CCC/C(C)=C/CO` [Geraniol] showed a Km of 4.1 ± 0.4 mM and a kcat of 8.0 ± 0.2 s⁻¹.
`CC(C)CO` [Isobutanol] gave a kcat of 2.3 ± 0.1 s⁻¹.

Same assay, conditions: CATec3 Y20F, 50° C., 2 mM acetyl-CoA; average±standard deviation; read-out: KM
With `CC/C=C\CCO` [3-cis-Hexen-1-ol] the Km was 6.4 ± 2.2 mM.
